Test results: PubChem BioAssay (NCI)
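Cells were grown in 96-well plates and exposed to each compound for 48 hours at five concentrations; endpoints were interpolated linearly between bracketing concentrations, or set to the highest concentration if not reached. At the GI50, growth is halved. The concentration for full growth arrest is given as TGI.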

Assays:
Assay in all cases: DTP human tumour cell line panel, 48 h
SK-MEL-5 melanoma = tested on: SK-MEL-5 melanoma
U251 CNS = tested on: U251 CNS
HCT-15 colon = tested on: HCT-15 colon
T-47D breast = tested on: T-47D breast
ACHN renal = tested on: ACHN renal
MDA-MB-231 breast = tested on: MDA-MB-231 breast
CCRF-CEM leukemia = tested on: CCRF-CEM leukemia
EKVX NSCLC = tested on: EKVX NSCLC
HL-60(TB) leukemia = tested on: HL-60(TB) leukemia
SK-MEL-2 melanoma = tested on: SK-MEL-2 melanoma
RXF 393 renal = tested on: RXF 393 renal
KM12 colon = tested on: KM12 colon
SNB-19 CNS = tested on: SNB-19 CNS
NCI-H460 lung = tested on: NCI-H460 lung
K-562 leukemia = tested on: K-562 leukemia
HOP-92 NSCLC = tested on: HOP-92 NSCLC
MALME-3M melanoma = tested on: MALME-3M melanoma
UO-31 renal = tested on: UO-31 renal
DU-145 prostate = tested on: DU-145 prostate
PC-3 prostate = tested on: PC-3 prostate
SN12C renal = tested on: SN12C renal
A549 NSCLC = tested on: A549 NSCLC
SF-268 CNS = tested on: SF-268 CNS
SF-539 CNS = tested on: SF-539 CNS
HCC-2998 colon = tested on: HCC-2998 colon
SF-295 CNS = tested on: SF-295 CNS
SNB-75 CNS = tested on: SNB-75 CNS
HS 578T breast = tested on: HS 578T breast
MDA-MB-435 = tested on: MDA-MB-435
IGROV1 ovarian = tested on: IGROV1 ovarian
SK-OV-3 ovarian = tested on: SK-OV-3 ovarian
TK-10 renal = tested on: TK-10 renal
SW-620 colon = tested on: SW-620 colon
HOP-62 NSCLC = tested on: HOP-62 NSCLC
SK-MEL-28 melanoma = tested on: SK-MEL-28 melanoma
OVCAR-5 ovarian = tested on: OVCAR-5 ovarian
HT29 colon = tested on: HT29 colon
CAKI-1 renal = tested on: CAKI-1 renal
NCI-H522 lung = tested on: NCI-H522 lung
A498 renal = tested on: A498 renal
OVCAR-8 ovarian = tested on: OVCAR-8 ovarian
MCF7 breast = tested on: MCF7 breast
UACC-62 melanoma = tested on: UACC-62 melanoma
MOLT-4 leukemia = tested on: MOLT-4 leukemia
SR leukemia = tested on: SR leukemia
RPMI-8226 leukemia = tested on: RPMI-8226 leukemia
NCI-H23 lung = tested on: NCI-H23 lung

`Cc1[nH]nc2ccc(-c3nc4cnc(N5CCN(C)CC5)cn4c3Nc3ccc(F)cc3Br)cc12` was tested, and the GI50 (SK-MEL-5 melanoma) was 1.74 µM, the TGI (SK-MEL-5 melanoma) was 3.25 µM and the GI50 (U251 CNS) was 2.43 µM. For the same compound, the TGI (U251 CNS) was 8.04 µM, the GI50 (HCT-15 colon) was 1.73 µM and the TGI (HCT-15 colon) was 3.38 µM. The GI50 (T-47D breast) was 1.95 µM, the TGI (T-47D breast) was 5.07 µM and the GI50 (ACHN renal) was 1.72 µM. The TGI (ACHN renal) was 3.39 µM, the GI50 (MDA-MB-231 breast) was 1.84 µM and the TGI (MDA-MB-231 breast) was 4.02 µM. For the same compound, the GI50 (CCRF-CEM leukemia) was 2.25 µM, the TGI (CCRF-CEM leukemia) was 7.08 µM and the GI50 (EKVX NSCLC) was 1.87 µM. The TGI (EKVX NSCLC) was 5.39 µM, the GI50 (HL-60(TB) leukemia) was 1.79 µM and the TGI (HL-60(TB) leukemia) was 4.81 µM. The GI50 (SK-MEL-2 melanoma) was 2.84 µM, the TGI (SK-MEL-2 melanoma) was 7.9 µM and the GI50 (RXF 393 renal) was 1.57 µM. For the same compound, the TGI (RXF 393 renal) was 3.2 µM, the GI50 (KM12 colon) was 3.67 µM and the TGI (KM12 colon) was 16.4 µM. It also gave a GI50 (SNB-19 CNS) of 2.87 µM, a TGI (SNB-19 CNS) of 10.4 µM and a GI50 (NCI-H460 lung) of 2.03 µM. The TGI (NCI-H460 lung) was 4.35 µM, the GI50 (K-562 leukemia) was 1.24 µM and the TGI (K-562 leukemia) was 7.56 µM. For the same compound, the GI50 (HOP-92 NSCLC) was 1.59 µM, the TGI (HOP-92 NSCLC) was 3.67 µM and the GI50 (MALME-3M melanoma) was 1.51 µM. It also gave a TGI (MALME-3M melanoma) of 3.14 µM, a GI50 (UO-31 renal) of 1.34 µM and a TGI (UO-31 renal) of 2.93 µM. The GI50 (DU-145 prostate) was 1.99 µM, the TGI (DU-145 prostate) was 3.93 µM and the GI50 (PC-3 prostate) was 2.47 µM. The TGI (PC-3 prostate) was 10.2 µM, the GI50 (SN12C renal) was 1.65 µM and the TGI (SN12C renal) was 3.34 µM. It also gave a GI50 (A549 NSCLC) of 2.81 µM, a TGI (A549 NSCLC) of 20.5 µM and a GI50 (SF-268 CNS) of 1.89 µM. It also gave a TGI (SF-268 CNS) of 4.11 µM, a GI50 (SF-539 CNS) of 1.79 µM and a TGI (SF-539 CNS) of 3.61 µM. The GI50 (HCC-2998 colon) was 2.11 µM, the TGI (HCC-2998 colon) was 5.18 µM and the GI50 (SF-295 CNS) was 1.61 µM. It also gave a TGI (SF-295 CNS) of 3.29 µM, a GI50 (SNB-75 CNS) of 1.22 µM and a TGI (SNB-75 CNS) of 2.57 µM. The GI50 (HS 578T breast) was 2.44 µM, the TGI (HS 578T breast) was 6.43 µM and the GI50 (MDA-MB-435) was 1.87 µM. The TGI (MDA-MB-435) was 3.83 µM, the GI50 (IGROV1 ovarian) was 1.69 µM and the TGI (IGROV1 ovarian) was 3.46 µM. It also gave a GI50 (SK-OV-3 ovarian) of 2.08 µM, a TGI (SK-OV-3 ovarian) of 5.09 µM and a GI50 (TK-10 renal) of 2.82 µM. It also gave a TGI (TK-10 renal) of 8.83 µM, a GI50 (SW-620 colon) of 2.9 µM and a TGI (SW-620 colon) of 11 µM. It also gave a GI50 (HOP-62 NSCLC) of 2.23 µM, a TGI (HOP-62 NSCLC) of 6.69 µM and a GI50 (SK-MEL-28 melanoma) of 1.69 µM. The TGI (SK-MEL-28 melanoma) was 3.2 µM, the GI50 (OVCAR-5 ovarian) was 2.38 µM and the TGI (OVCAR-5 ovarian) was 7.94 µM. The GI50 (HT29 colon) was 2.24 µM, the TGI (HT29 colon) was 5.08 µM and the GI50 (CAKI-1 renal) was 2.23 µM. For the same compound, the TGI (CAKI-1 renal) was 6.51 µM, the GI50 (NCI-H522 lung) was 2.01 µM and the TGI (NCI-H522 lung) was 4.72 µM. It also gave a GI50 (A498 renal) of 1.32 µM, a TGI (A498 renal) of 2.78 µM and a GI50 (OVCAR-8 ovarian) of 2.29 µM. It also gave a TGI (OVCAR-8 ovarian) of 6.31 µM, a GI50 (MCF7 breast) of 1.48 µM and a TGI (MCF7 breast) of 2.9 µM. For the same compound, the GI50 (UACC-62 melanoma) was 1.64 µM, the TGI (UACC-62 melanoma) was 3.22 µM and the GI50 (MOLT-4 leukemia) was 2.85 µM. The TGI (MOLT-4 leukemia) was 9.43 µM, the GI50 (SR leukemia) was 0.303 µM and the TGI (SR leukemia) was > 100 µM. The GI50 (RPMI-8226 leukemia) was 2.16 µM, the TGI (RPMI-8226 leukemia) was 5.07 µM and the GI50 (NCI-H23 lung) was 1.83 µM. For the same compound, the TGI (NCI-H23 lung) was 3.6 µM.
